Measured values published in US8741955B2, “D-serine transporter inhibitors as pharmaceutical compositions for the treatment of central nervous system disorders” (Allergan, Inc., priority 2011, dated 2014).

What was measured:
human ASCT2 = target: T1, human ASCT2 (Homo sapiens, UniProt Q15758); experiment: transport into HEK cells expressing ASCT2; format: cell-based
T1 construct: expressed in transfected cells; host or cells: HEK (human embryonic kidney) cells
T1 sequence (Q15758 1-541): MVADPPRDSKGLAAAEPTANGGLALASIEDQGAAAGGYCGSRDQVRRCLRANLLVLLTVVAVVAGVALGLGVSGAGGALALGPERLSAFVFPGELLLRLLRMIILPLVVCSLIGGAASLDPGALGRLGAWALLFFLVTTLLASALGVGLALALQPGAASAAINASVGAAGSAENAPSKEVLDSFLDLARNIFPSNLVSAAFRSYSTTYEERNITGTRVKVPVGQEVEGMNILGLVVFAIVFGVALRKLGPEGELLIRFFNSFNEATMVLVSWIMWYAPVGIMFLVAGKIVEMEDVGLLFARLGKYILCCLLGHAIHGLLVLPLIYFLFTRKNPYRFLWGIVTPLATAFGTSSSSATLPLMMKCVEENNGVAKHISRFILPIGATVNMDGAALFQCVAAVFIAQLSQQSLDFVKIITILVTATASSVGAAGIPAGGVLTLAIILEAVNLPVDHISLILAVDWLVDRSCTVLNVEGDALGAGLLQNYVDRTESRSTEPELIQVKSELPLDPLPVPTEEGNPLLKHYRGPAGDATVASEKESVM
Protocol: Cell-based assays: the transport of [^3H]L- or D-serine was measured in primary cultures of rat hippocampal astrocytes or in human embryonic kidney (HEK) cells expressing ASCT transporter sub-types. For the astrocyte assays, cells were plated on either 24- or 96-well plates at a density of 50,000 cells per well. For the HEK assays, cells were plated on coated 96-well plates at a density of 80,000 cells/well. Assays were conducted in duplicate at room temperature in assay buffer consisting of: NaCl: 150 mM, KCl: 2 mM; MgCl2: 1 mM; CaCl2: 1 mM; HEPES: Tris buffer: 10 mM, pH7.4. To assess the sodium-dependence of transport, NaCl was replaced in the assay buffer by equimolar choline chloride. Following aspiration of growth medium and 2 washes with assay buffer, cells were incubated with [^3H]L- or D-serine at a final concentration of 1 μM for 5 min (astrocytes) or 1 min (HEK cells), after which the incubation medium was aspirated and the cells washed twice with ice-cold assay buffer. Cells containing radiolabel were solubilized in 100 μl of 1% Triton-X100 and an aliquot counted in a beta counter. IC50 values were determined over a range of at least 6 concentrations and derived from curve-fitting algorithms available in GraphPad Prism 4.

[1] = system: NMDA receptor-mediated excitatory postsynaptic currents (EPSCNMDA); experiment: electrophysiological recording of NMDA receptor-mediated EPSCs in rat hippocampal slices
Protocol: […] thick hippocampal slices were prepared from […] rats using Leica VT1000S-microtome. Slices were perfused with ACSF containing: 121 mM NaCl, 2.5 mM KCl, 2.0 mM Mg2SO4, 2.0 CaCl2, 1 mM NaH2PO4, 26.2 NaHCO3, and 11 mM glucose, which was equilibrated with 5% CO2/95% O2. Experiments were performed in a recording chamber on the stage of an Olympus BX-61wi microscope with infrared DIC optics for visualizing whole-cell patch-clamp recordings. EPSPs were recorded from CA1 pyramidal neurons by stimulating the Schaffer collateral-commissural pathway using a bipolar tungsten electrode. The recording pipettes were filled with regular ICM containing: 120 mM Cs-gluconate, 5 mM NaCl, 10 mM KCl, 0.1 mM CaCl2, 1 mM EGTA, 2 mM MgCl2, 10 mM HEPES, 2 mM Na-ATP, 2 mM Na2-phosphocreatine, and 0.25 mM Na-GTP, pH 7.3 (290 mOsm).
To measure NMDA-mediated EPSCs, extracellular Mg2SO4 was lowered to 0.2 mM and 2 μM NBQX and 100 μM picrotoxin were added in the ACSF. 1 μM 7-CKY (7-chlorokynurenic acid) was added to improve the sensitivity of […] to D-serine.

[2] = system: long-term potentiation (LTP) in the primary visual cortex; experiment: long term potentiation in primary visual cortex slices; parameters: species or system rat
Protocol: Long Term Potentiation (LTP) in primary visual cortex has been used as a cellular model for visual cortex plasticity and has functional consequences on visual evoked responses. NMDA receptors play a critical role in visual cortex LTP induction.
Following decapitation of the rat, the brain was rapidly removed and immersed in ice-cold artificial cerebrospinal fluid (ACSF) containing 124 mM NaCl, 3 mM KCl, 1.25 mM KH2PO4, 3.4 mM CaCl2, 2.5 mM MgSO4, 26 mM NaHCO3, and 10 mM D-glucose. A block of visual cortex was created by removing the frontal ⅔ portion of the brain and the cerebellum. Coronal visual cortex slices of 375 μm were prepared from adult Sprague Dawley (SD) rats using a vibratome (VT 1000 S; Leica). The slices were maintained in an interface recording chamber perfused with preheated ACSF. Slices were continuously perfused with this solution at a rate of 1.00-1.50 ml/min while the surface of the slices was exposed to warm, humidified 95% O2/5% CO2 and maintained at 31±1° C. Visual cortex slices were allowed to recover for 1 hr before recording began. […] This was repeated 2 additional times with a 1 minute intertrain interval, and the level of LTP was recorded for at least 30 min. Changes in amplitude of the synaptic response were used to measure the extent of LTP because it was determined to be the more consistent parameter than the slope of the response. […]

Structure (SMILES) | inhibition of [3H]L-serine transport in ASCT2-expressing HEK cells (human ASCT2) | percentage increase in the amplitude of EPSCNMDA ([1]; 1000 μM, in presence of 1 μM 7-CKY, representative experiment) [%] | duration of potentiation of EPSCNMDA ([1]; 1000 μM, representative experiment) | effect on NMDA receptor mediated EPSCs in CA1 region of the hippocampus ([1]; rat hippocampal slice) | effect on LTP with D-AAO in the perfusion medium ([2]; 0.2 unit/ml DAAO) | effect on LTP evoked by theta burst stimulation in visual cortex slice ([2]; rat visual cortex slice)
N[C@H](CO)C(=O)O [D-serine] | completely inhibited | – | – | – | – | –
N[C@H](C(=O)O)c1ccc(O)cc1 [L-4-hydroxyphenylglycine] | – | 22 | lasted for one hour and then returned to baseline in control buffer | potentiated NMDA receptor mediated excitatory post-synaptic currents | completely prevented | enhanced LTP in a concentration-dependent manner
